The results in this text go back to US9278083B2, “Methods for purifying trans-(−)-Δ9-tetrahydrocannabinol and trans-(+)-Δ9-tetrahydrocannabinol” (SVC Pharma LP, priority 2004, dated 2016).

The data set is described as follows: Storage stability of crystalline (±)-Δ^9-THC at 25° C.

For `CCCCCc1cc(O)c2c(c1)OC(C)(C)[C@@H]1CCC(C)=C[C@@H]21` (racemic) [crystalline (±)-Δ^9-THC, (±)-Δ^9-THC], the Stability on storage entry (off-white crystals of Example 17, at 25° C. in the presence of air and laboratory lighting) is listed as “stable”. In addition, the “Appearance (colour) on storage” value (white crystalline solid of Example 15, after at least three days at 25° C.) is “remained white”.
